Test results published in US6898533B1, “Methods for predicting the biological, chemical, and physical properties of molecules from their spectral properties” (The United States of America as represented by the …, priority 2000, dated 2005).
Like-named read-outs stand apart in the source and are kept apart here.

Columns and labels:
[1] = quantum yield for photosensitized production of singlet oxygen; format: physicochemical
From the text: Phototosensitized oxidations involving singlet oxygen, a strong oxidant, are implicated in photodynamic inactivation of viruses and cells, in phototherapy for cancer, in photocarcinogenesis and in photodegradation of dyes and polymers. Quenching of excited singlet and triplet states of many substances by ground state molecular oxygen produces singlet oxygen; the lowest electronically excited singlet state of molecular oxygen. A compilation of the quantum yields for the formation of singlet oxygen in fluid solutions for over 700 substances is available from the Notre Dame Radiation Laboratory—Radiation Chemistry Data Center.
The compounds are divided into two endpoint classes based upon having a high quantum yield for production of singlet oxygen (H, QY>0.50) or a low quantum yield for production of singlet oxygen (L, QY<0.50).

[2] = formation of singlet oxygen in fluid solutions; cited from earlier work
[3] = biological target: beta (ERβ) estrogen receptor (Rattus norvegicus, UniProt Q62986); conditions: cited from earlier work
estrogen receptor [4] = experiment: estrogen receptor binding class of the 30-compound training set
From the text: Two Spectral Data-Activity Relationship (SDAR) models were established, based on ^13C NMR and EI MS spectra, for 30 estrogenic chemicals whose relative binding affinities (RBA) for the alpha (ERα) and beta (ERβ) estrogen receptors are available.
Strong binders to the estrogen receptor were classified as having a log (RBA) over 0.0, and medium binders to the estrogen receptor were classified as having a log (RBA) of less than or equal to 0.0.

[5] = biological target: T1, alpha (ERα) estrogen receptor (Homo sapiens, UniProt P03372); conditions: cited from earlier work
T1 sequence (P03372 1-595): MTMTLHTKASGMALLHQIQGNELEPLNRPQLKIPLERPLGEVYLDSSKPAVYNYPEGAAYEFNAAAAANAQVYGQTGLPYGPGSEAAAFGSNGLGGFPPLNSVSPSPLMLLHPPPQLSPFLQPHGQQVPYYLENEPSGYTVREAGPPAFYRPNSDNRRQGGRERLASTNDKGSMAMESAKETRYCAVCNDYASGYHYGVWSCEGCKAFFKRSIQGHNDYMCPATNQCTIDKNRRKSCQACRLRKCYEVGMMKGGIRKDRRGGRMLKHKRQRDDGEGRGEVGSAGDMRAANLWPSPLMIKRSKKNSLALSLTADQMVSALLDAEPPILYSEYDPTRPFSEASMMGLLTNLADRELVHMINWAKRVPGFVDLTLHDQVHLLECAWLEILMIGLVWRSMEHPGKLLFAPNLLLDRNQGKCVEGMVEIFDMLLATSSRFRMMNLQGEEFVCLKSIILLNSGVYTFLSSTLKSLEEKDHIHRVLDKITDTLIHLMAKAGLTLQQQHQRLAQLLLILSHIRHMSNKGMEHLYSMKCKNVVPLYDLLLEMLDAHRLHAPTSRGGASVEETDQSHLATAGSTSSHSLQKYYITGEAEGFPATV

estrogen receptor [6] = experiment: estrogen receptor relative binding affinity, expanded training set of 107 compounds; conditions: input class, 107-compound training set
From the text: The training set included weak estrogen receptor binders in addition to strong and medium estrogen receptor binders.
For this model, strong estrogen receptor binders were defined as having log(RBA)>−0.25 and weak estrogen receptor binders were defined as having log(RBA)<−3.0. Medium estrogen receptor binders were defined as having log(RBA) in between.

estrogen receptor [7] = conditions: 107-compound training set; cited from earlier work
[8] = class from singlet oxygen quantum yield
[9] = SDAR training input endpoint class, 30 compounds
[10] = log of relative binding affinity, 17-β-estradiol RBA = 100

Chain of beta (ERβ) estrogen receptor (Q62986 whole entry): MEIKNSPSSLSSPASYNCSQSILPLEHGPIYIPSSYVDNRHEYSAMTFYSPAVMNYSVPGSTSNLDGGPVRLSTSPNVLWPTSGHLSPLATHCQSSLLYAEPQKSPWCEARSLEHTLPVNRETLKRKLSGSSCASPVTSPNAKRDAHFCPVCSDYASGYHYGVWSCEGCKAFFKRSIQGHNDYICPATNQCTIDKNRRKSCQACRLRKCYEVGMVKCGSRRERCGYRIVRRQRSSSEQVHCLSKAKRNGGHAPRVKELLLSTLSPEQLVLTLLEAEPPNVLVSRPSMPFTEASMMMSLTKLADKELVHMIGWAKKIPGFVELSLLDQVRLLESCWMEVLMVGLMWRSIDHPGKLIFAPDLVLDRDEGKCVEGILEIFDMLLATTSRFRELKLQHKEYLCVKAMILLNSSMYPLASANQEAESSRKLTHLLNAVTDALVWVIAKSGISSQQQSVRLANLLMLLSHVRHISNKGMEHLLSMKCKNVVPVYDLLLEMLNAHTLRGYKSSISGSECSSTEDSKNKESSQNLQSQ

O=C1c2ccccc2Cc2ccccc21 [Anthrone]
Endpoint Class [1, 8]: L (low quantum yield for production of singlet oxygen (L, QY<0.50)) | Quantum Yield [2]: 0.25

O=C(C(=O)c1ccccc1)c1ccccc1 [Benzil]
Endpoint Class [1, 8]: H (high quantum yield for production of singlet oxygen (H, QY>0.50))

C[C@]12CCC(=O)C[C@@H]1CC[C@@H]1[C@@H]2CC[C@]2(C)[C@@H](O)CC[C@@H]12 [Dihydrotestosterone]
Log-(RBA) beta [3]: −0.77 | Class Input (estrogen receptor [4]): M (key: Strong binders to the estrogen receptor were classified as having a log (RBA) over 0.0; M: medium binders to the estrogen receptor were classified as having a log (RBA) of less than or equal to 0.0)

O=c1ccc2cc3ccoc3cc2o1 [Psoralen]
Endpoint Class [1, 8]: L (low quantum yield for production of singlet oxygen (L, QY<0.50)) | Quantum Yield [2]: 0.0055

c1ccc(-c2ccccc2)cc1 [Biphenyl]
Endpoint Class [1]: H (key: high quantum yield for production of singlet oxygen (H, QY>0.50); low quantum yield for production of singlet oxygen (L, QY<0.50))

CC(C)(C)C(=S)c1ccccc1 [Pivalothiophenone]
Endpoint Class [1, 8]: H (high quantum yield for production of singlet oxygen (H, QY>0.50)) | Quantum Yield [2]: 1.0

c1ccc(-c2oc(-c3ccccc3)c3ccccc23)cc1 [1,3-Diphenylisobenzofuran]
Endpoint Class [1, 8]: L (low quantum yield for production of singlet oxygen (L, QY<0.50)) | Quantum Yield [2]: 0.26

C[C@]12CC[C@H]3[C@@H](CCC4=CC(=O)CC[C@@H]43)[C@@H]1CC[C@@H]2O [Nandrolone]
Log-(RBA) alpha [5]: −2.00 | Log-(RBA) beta [3]: −0.64 | Class Input (estrogen receptor [4]; [9]): M (medium binders to the estrogen receptor were classified as having a log (RBA) of less than or equal to 0.0)

C[C@]12CC[C@@H]3c4ccc(O)cc4CC[C@H]3[C@@H]1C[C@@H](O)[C@@H]2O [Estriol]
Log-(RBA) beta [3, 10]: 1.32

CC(=O)c1ccccc1 [Acetophenone]
Endpoint Class [1, 8]: L (low quantum yield for production of singlet oxygen (L, QY<0.50)) | Quantum Yield [2]: 0.29

O=C(c1ccccc1)c1ccccc1 [Benzophenone]
Endpoint Class [1, 8]: L (low quantum yield for production of singlet oxygen (L, QY<0.50)) | Quantum Yield [2]: 0.29

C[C@]12CC[C@@H]3c4ccc(O)c(O)c4CC[C@H]3[C@@H]1CC[C@@H]2O [4-OH-Estradiol, 4-hydroxy-estradiol]
Log-(RBA) alpha [5, 10]: 1.11 | Log-(RBA) beta [3, 10]: 0.85 | Class (estrogen receptor [6]): S (strong estrogen receptor binders were defined as having log(RBA)>−0.25) | Class Input (estrogen receptor [4]; [9]): S (Strong binders to the estrogen receptor were classified as having a log (RBA) over 0.0)

c1ccc2cc3cc4ccccc4cc3cc2c1 [Tetracene]
Endpoint Class [1, 8]: H (high quantum yield for production of singlet oxygen (H, QY>0.50)) | Quantum Yield [2]: 0.70

CCCCN(C)C(=O)CCCCCCCCCC[C@@H]1Cc2cc(O)ccc2[C@H]2CC[C@]3(C)[C@@H](O)CC[C@H]3[C@H]12 [ICI 164,384]
log RBA (estrogen receptor [7]): 1.16 | Log-(RBA) beta [3, 10]: 2.22 | Class (estrogen receptor [6]): S (strong estrogen receptor binders were defined as having log(RBA)>−0.25) | Class Input (estrogen receptor [4]; [9]): S (Strong binders to the estrogen receptor were classified as having a log (RBA) over 0.0)

O=C1c2ccccc2C(=O)c2ccccc21 [9,10-Anthraquinone]
Endpoint Class [1, 8]: L (low quantum yield for production of singlet oxygen (L, QY<0.50)) | Quantum Yield [2]: 0.15

c1cc2ccc3cccc4ccc(c1)c2c34 [Pyrene]
Endpoint Class [1, 8]: H (high quantum yield for production of singlet oxygen (H, QY>0.50)) | Quantum Yield [2]: 0.71

O=C1C=Cc2cccc3cccc1c23 [Phenalen-1-one]
Endpoint Class [1, 8]: H (high quantum yield for production of singlet oxygen (H, QY>0.50)) | Quantum Yield [2]: 0.94

C[C@]12CCC(=O)C[C@H]1CC[C@@H]1[C@@H]2CC[C@]2(C)C(=O)CC[C@@H]12 [5β-Androstanedione]
Log-(RBA) alpha [5]: <−2.0 | Log-(RBA) beta [3]: <−2.0 | Class Input (estrogen receptor [4]): M (key: Strong binders to the estrogen receptor were classified as having a log (RBA) over 0.0; M: medium binders to the estrogen receptor were classified as having a log (RBA) of less than or equal to 0.0) | RBA class in words (estrogen receptor [4]): medium

C[C@]12CC[C@H](O)CC1=CC[C@@H]1[C@@H]2CC[C@]2(C)C(=O)CC[C@@H]12 [Dehydroepiandroster-one]
Log-(RBA) alpha [5]: −1.40 | Log-(RBA) beta [3]: −1.15 | Class Input (estrogen receptor [4]; [9]): M (medium binders to the estrogen receptor were classified as having a log (RBA) of less than or equal to 0.0)

CC/C(=C(\c1ccccc1)c1ccc(OCCN(C)C)cc1)c1ccccc1 [Tamoxifen]
Class (estrogen receptor [6]): S (strong estrogen receptor binders were defined as having log(RBA)>−0.25) | Class Input (estrogen receptor [4]; [9]): S (Strong binders to the estrogen receptor were classified as having a log (RBA) over 0.0)

c1ccc2nc3ccccc3cc2c1 [Acridine]
Endpoint Class [1, 8]: H (high quantum yield for production of singlet oxygen (H, QY>0.50)) | Quantum Yield [2]: 0.83

O=c1c2ccccc2oc2ccccc12 [Xanthen-9-one]
Endpoint Class [1, 8]: L (low quantum yield for production of singlet oxygen (L, QY<0.50)) | Quantum Yield [2]: 0.33

C[C@]12CCC(=O)C[C@@H]1CC[C@@H]1[C@@H]2CC[C@]2(C)C(=O)CC[C@@H]12 [5α-Androstanedione]
Log-(RBA) alpha [5]: <−2.0 | Log-(RBA) beta [3]: <−2.0 | Class Input (estrogen receptor [4]): M (key: Strong binders to the estrogen receptor were classified as having a log (RBA) over 0.0; M: medium binders to the estrogen receptor were classified as having a log (RBA) of less than or equal to 0.0) | RBA class in words (estrogen receptor [4]): medium

c1ccc2cc3ccccc3cc2c1 [Anthracene]
Endpoint Class [1, 8]: H (high quantum yield for production of singlet oxygen (H, QY>0.50)) | Quantum Yield [2]: 0.83

c1ccc2c(c1)Cc1ccccc1-2 [Flourene]
Endpoint Class [1, 8]: H (high quantum yield for production of singlet oxygen (H, QY>0.50)) | Quantum Yield [2]: 0.74

C[C@]12CC[C@H]3[C@@H](CCC4=CC(=O)CC[C@@]43C)[C@@H]1CC[C@@H]2O [Testosterone]
Log-(RBA) alpha [5]: −2.10 | Log-(RBA) beta [3]: −2.10 | Class Input (estrogen receptor [4]; [9]): M (medium binders to the estrogen receptor were classified as having a log (RBA) of less than or equal to 0.0)

CC(=O)C(C)=O [Biacetyl]
Endpoint Class [1, 8]: H (high quantum yield for production of singlet oxygen (H, QY>0.50)) | Quantum Yield [2]: 0.57

C[C@]12CC[C@@H]3c4ccc(O)cc4CC[C@H]3[C@@H]1CC[C@H]2O [17α-Estradiol]
log RBA (estrogen receptor [7]): 0.49 | Class (estrogen receptor [6]): S (strong estrogen receptor binders were defined as having log(RBA)>−0.25) | Class Input (estrogen receptor [4]; [9]): S (Strong binders to the estrogen receptor were classified as having a log (RBA) over 0.0)

C[C@H]1CCC[C@@H](O)CCCCCc2cc(O)cc(O)c2C(=O)O1 [β-Zearanol]
Log-(RBA) alpha [5, 10]: −1.20 | Class Input (estrogen receptor [4]; [9]): M (medium binders to the estrogen receptor were classified as having a log (RBA) of less than or equal to 0.0)

O=c1oc2cc(O)ccc2c2oc3cc(O)ccc3c12 [Coumestrol]
Log-(RBA) beta [3, 10]: 2.27

Cn1ccc2ccccc21 [1-Methylindole]
Endpoint Class [1, 8]: L (low quantum yield for production of singlet oxygen (L, QY<0.50)) | Quantum Yield [2]: 0.35

CC/C(=C(/CC)c1ccc(O)cc1)c1ccc(O)cc1 [Diethystibesterol]
log RBA (estrogen receptor [7]): 2.60 | Log-(RBA) beta [3]: 2.47 | Class (estrogen receptor [6]): S (strong estrogen receptor binders were defined as having log(RBA)>−0.25) | Class Input (estrogen receptor [4]): S (key: Strong binders to the estrogen receptor were classified as having a log (RBA) over 0.0; M: medium binders to the estrogen receptor were classified as having a log (RBA) of less than or equal to 0.0)

C(=C\c1ccccc1)/c1ccccc1 [(E)-Stilbene]
Endpoint Class [1, 8]: L (low quantum yield for production of singlet oxygen (L, QY<0.50)) | Quantum Yield [2]: 0.08
